Data as given in publication PMC10067098 (Cancer Medicine, 2023).

Test: plasma pharmacokinetics, non‐compartmental analysis
Assay type: in vivo, human
Conditions: Day 1 in Cycle 1 or Day 1 in Cycle 2; data not shown
Procedure: In addition, trough plasma concentration (C trough) was measured on Day 7 in Cycle 0, and Day 1 in Cycles 1 and 2.
TEAEs were tabulated by system organ class (SOC) and preferred term (PT). For the other safety and PK endpoints, continuous data were described by mean and standard deviation (SD), median and range, and categorical data were summarized by frequency. The proportionality of the PK parameters, C max and AUC10h, was evaluated using a power model (see Table 4). For the efficacy endpoints, best overall response was tabulated as a frequency table, and the time‐to‐event data such as duration of response, PFS, and OS was evaluated using Kaplan–Meier method. All analyses were conducted using SAS® Version 9.4 (SAS Institute).

COc1cc2ncnc(Nc3ccc(F)c(Cl)c3)c2cc1OCCCN1CCOCC1 [gefitinib]
mean C max and AUC among cohorts: no specific pattern was observed
